Publication PMC3923730 (Journal of Translational Medicine, 2014)

Key:
[1] = Phase I trial pharmacokinetics, single i.v. ascending doses; type: in vivo, human
Method: (§1) A randomized, double-blind, placebo controlled study was performed to investigate the safety, tolerability and pharmacokinetics of single i.v. ascending doses of TRO40303 in healthy male and post-menopausal female subjects. The choice of the dose and flow rate escalation process is explained in the Result section. Seventy-two healthy volunteers were randomized, with 18 receiving a placebo and 54 an active liposomal formulation containing 20 mg/mL TRO40303 at final doses ranging from 0.5, 1, 2, 3.5, 6, 10 to 13 mg/kg with escalating flow rates from 0.04 mL/min to 35 mL/min. Within each group, 3 or 6 subjects received TRO40303 and 1 or 2 subjects received the same volume of placebo. The sample size was based on the number of doses and flow rates to be investigated. The 6 verum/2 placebo ratio per group is widely used in single ascending dose studies and provides adequate safety and pharmacokinetic information. The 3 verum/1 placebo ratio used in the last groups was chosen only to explore additional flow rates at previously studied doses.
Venous blood samples (5 mL) were collected for determination of TRO40303 concentrations in plasma at pre-dose, end of infusion, then 5 min, 15 min, 30 min, 1 h, 2 h, 4 h, 8 h, 12 h, 16 h, 24 h, 48 h, 72 h and 96 h post end of infusion into heparin–lithium Vacutainer tubes. The blood samples were gently inverted then centrifuged in a refrigerated centrifuge (+4°C) within 30 min after sampling at 1500 g for ca 10 min. The resulting plasma was frozen in two separate labelled polypropylene tubes at –20 ± 5°C until assaying.
For the quantifying TRO40303 levels in human plasma samples, the same method, GLP validated, was used and the analysis was performed at Bertin Pharma (Orleans, France). Analysis was carried out on 1200 Series (Agilent) and Series 200 (Perkin Elmer) systems interfaced to an API 4000 (AB Sciex) MS detector. Calculations were carried out with Analyst 1.4.1 and 1.5.1 (AB Sciex) software.

[2] = system: healthy male and post-menopausal female subjects; assay: Phase I trial safety and tolerability; type: in vivo; conditions: human
Method: as §1
Continuous recording of adverse events, continuous blood pressure monitoring for 2 hours after dosing and 12-lead electrocardiogram (ECG) at pre-dose, 15 min, 1 h, 4 h, 8 h, 24 h, 72 h and 96 h after end of infusion were performed. Vital signs, physical examination, haematology, blood biochemistry, urinalysis and haemostasis were performed before the study, at specific times after dosing and at the “end of study visit”, 7 days after administration. Blood biochemistry analysis included ASAT, ALAT, alkaline phosphatase, triglycerides, total cholesterol, HDL-cholesterol and LDL-cholesterol.

[3] = human, single i.v., liposomes, 6 mg/kg, n = 12
[4] = human, single i.v., liposomes, 10 mg/kg, n = 9
[5] = human, single i.v., liposomes, 13 mg/kg, n = 6
[6] = human, single i.v., liposomes, over all doses
[7] = liposomes in human, IL30 in rats
[8] = 0.5 mg/kg, 0.08 mL/min, back pain
[9] = 2 mg/kg, 0.64 mL/min, injection site haematoma
[10] = 3.5 mg/kg, 5 mL/min, presyncope
[11] = 6 mg/kg, 7.5 mL/min, infusion site inflammation
[12] = 6 mg/kg, 23 mL/min, vision blurred
[13] = single i.v. 0.5-13 mg/kg, flow rates 0.04-35 mL/min

Q: What does the source list for CC(C)CCC[C@@H](C)[C@H]1CC[C@H]2[C@@H]3CC/C(=N\O)[C@](C)(CCCO)[C@H]3CC[C@]12C [TRO40303, 3,5-seco-4-nor-cholestan-5-one oxime-3-ol]?
A: CL Min-max [1, 3]: 0.326 to 0.680 mL/min/kg; Cmax Mean [1, 3]: 118 µg/mL; Cmax Min-max [1, 3]: 59.5 to 266 µg/mL; Terminal t1/2 Mean [1, 3]: 24.4 h; Terminal t1/2 Min-max [1, 3]: 21.2 to 30.0 h; Vz Mean [1, 3]: 0.964 L/kg; Vz Min-max [1, 3]: 0.000611 to 0.00134 L/kg; C5min Mean ([1]; human, single i.v., liposomes, 6 mg/kg, n = 12, 5 min post end of infusion): 112 µg/mL; AUC(0-∞) Mean [1, 4]: 408 µg·h/mL; AUC(0-∞) Min-max [1, 4]: 303 to 501 µg·h/mL; C5min Min-max [1, 4]: 120 to 279 µg/mL; CL Mean [1, 4]: 0.422 mL/min/kg; CL Min-max [1, 4]: 0.332 to 0.549 mL/min/kg; Cmax Mean [1, 4]: 194 µg/mL; Cmax Min-max [1, 4]: 130 to 279 µg/mL; Terminal t1/2 Mean [1, 4]: 25.3 h; Terminal t1/2 Min-max [1, 4]: 19.3 to 30.2 h; Vz Mean [1, 4]: 0.929 L/kg; Vz Min-max [1, 4]: 0.000624 to 0.00144 L/kg; C5min Mean ([1]; human, single i.v., liposomes, 10 mg/kg, n = 9, 5 min post end of infusion): 193 µg/mL; AUC(0-∞) Mean [1, 5]: 651 µg·h/mL; AUC(0-∞) Min-max [1, 5]: 468 to 814 µg·h/mL; C5min Min-max [1, 5]: 148 to 371 µg/mL; CL Mean [1, 5]: 0.347 mL/min/kg; CL Min-max [1, 5]: 0.266 to 0.463 mL/min/kg; Cmax Mean [1, 5]: 259 µg/mL; Cmax Min-max [1, 5]: 167 to 371 µg/mL; Terminal t1/2 Mean [1, 5]: 24.4 h; Terminal t1/2 Min-max [1, 5]: 20.1 to 28.6 h; Vz Mean [1, 5]: 0.723 L/kg; Vz Min-max [1, 5]: 0.000599 to 0.000989 L/kg; C5min Mean ([1]; human, single i.v., liposomes, 13 mg/kg, n = 6, 5 min post end of infusion): 248 µg/mL; Vz [1, 6]: 1.1 L/kg; mean penultimate thalf (when at least 80% of drug was eliminated) [1, 6]: 4 h; mean terminal thalf [1, 6]: 25 h; AUC(0-∞) in humans compared to rats for the same dose [1, 7]: ~ 7 fold; C5min in humans compared to rats for the same dose [1, 7]: ~ 2 fold; Emergent AEs: Description ([2]; 0.5 mg/kg, 0.08 mL/min): 2 episodes of back pain; Emergent AEs: Intensity [2, 8]: 1 Moderate and 1 Mild; Emergent AEs: Relationship [2, 8]: Excluded; Emergent AEs: Description ([2]; 2 mg/kg, 0.64 mL/min): 1 episode of injection site haematoma; Emergent AEs: Intensity [2, 9]: Moderate; Emergent AEs: Relationship [2, 9]: Excluded; Emergent AEs: Description ([2]; 3.5 mg/kg, 5 mL/min): 1 episode of presyncope; Emergent AEs: Intensity [2, 10]: Moderate; Emergent AEs: Relationship [2, 10]: Unlikely; Emergent AEs: Description ([2]; 6 mg/kg, 7.5 mL/min): 1 episode of infusion site inflammation; Emergent AEs: Intensity [2, 11]: Moderate; Emergent AEs: Relationship [2, 11]: Probable; Emergent AEs: Description ([2]; 6 mg/kg, 23 mL/min): 1 episode of vision blurred; Emergent AEs: Intensity [2, 12]: Moderate; Emergent AEs: Relationship [2, 12]: Possible; changes in vital signs, ECG parameters, laboratory tests or physical examinations ([2]; any time, any dose group): No relevant changes; clinical tolerability [2, 13]: well tolerated clinically; serious adverse events [2, 13]: no serious adverse events
